Test results as given in article PMC9838390, “Discovery and biosynthesis of karnamicins as angiotensin converting enzyme inhibitors” (Nature Communications, 2023).
“And” between values parts separate entries of the source, which are not always exact repeats. Equal values may be shown once.

Tests used:
Format in all cases: biochemical, L. rhizosphaerae NEAU-A2
[1] = system: KnmB1; assay: NADPH oxidation of KnmB1 and variants (340 nm)
Experimental: Hydrogen peroxide formation assay and NADPH oxidation […]
NADPH detection was carried out in the cuvette by NanoDrop 2000c (Fisher Scientific). NADPH signal at 340 nm was monitored in time using 6220 M–1 cm–1 as […]
(§1) Spectral data for new compounds […]
Reaction conditions: 50 mM Tris-HCl buffer (pH 7.5), 0.15 mM NADPH, and 2 μM KnmB1 or KnmB2. (e) NADPH oxidation of KnmB1 and variants. (f) NADPH oxidation of KnmB1 in the presence 24/32/36. (g) NADPH oxidation of KnmB1 and variants in the presence 24. Reaction conditions (e-g) for KnmB1 and their variants: 50 mM Tris-HCl buffer (pH 7.5), 0.15 mM NADPH, and 6 μM KnmB1 or variants, or 0.1 mM substrate 24/32/36. […]
(§2) 2 μM KnmB2 or variants, or 0.1 mM substrate 24/32. […]
(§3) Source data are provided as a Source Data file. […]

[2] = system: KnmB1; assay: Hydrogen peroxide formation assay of KnmB1 and variants; settings: 30 °C, average of 3
Experimental: (§4) Hydrogen peroxide formation assay and NADPH oxidation
(§5) The hydrogen peroxide formed from KnmB1, KnmB2 and their variants were measured using the Hydrogen Peroxide Assay Kit (Beyotime Industrial Co. Ltd, Shanghai, China)4-5. 5–100 µL of enzyme reaction mixture was added to 100 µL of working reagent (S0038-1). The mixture was incubated for 30 min at 25 °C, at which time the absorbance at 560 nm was measured by NanoDrop 2000c (Fisher Scientific). […]
as §1
(§6) Supplementary Figure 131. H2O2 generation and NADPH oxidation for KnmB2, KnmB1 and their variants. (a) Hydrogen peroxide formation of KnmB2 and variants. […]
(b) Hydrogen peroxide formation of KnmB1 and variants. Reaction conditions: 100 µL system containing 50 mM Tris-HCl buffer (pH 7.5), 1 mM NADPH, 16 μM KnmB2, 17 μM KnmB1 or variants, 0.1 mM compound 24,1 mM SAM, and 2 […]
(§7) (1 picture or pasted object on this page, not shown here) […]
μM KnmF at 30 °C for 3h. (c) Hydrogen peroxide formation of KnmB1 and variants.
Reaction conditions: 100µL system containing 50 mM Tris-HCl buffer (pH 7.5), 0.3 mM NADPH, and 6 μM KnmB1 or variants, or 0.1 mM 24 at 30 °C for 30 min. […]
as §2, §3

[3] = system: KnmB2; assay: Hydrogen peroxide formation assay of KnmB2 and variants
Experimental: as §4, §5, §1, §6, §7
H2O2 generation for KnmB2 and variants in the presence 24 or 32. Reaction conditions (h-j) for KnmB2 and their variants: 50 mM Tris-HCl buffer (pH 7.5), 0.15 mM NADPH, 2 μM KnmB2 or variants, or 0.1 mM substrate 24/32. Values are the means ± SD of n = 3 independent experiments, except for KnmB2+24 (T = 40 min), KnmB2-N219D+24 (T = 4 min), KnmB2-Y215F+24 (T= 1 min and 3 min) in i and j, and KnmB2+32 (T= 8 min) in j (n = 2). Source data are provided as a Source Data file. […]

In the case of CC(C)CCCCc1nc(-c2cc(O)cc(C(N)=O)n2)cs1 [Compound 24], the “effector action on reduction of flavin in KnmB1 by NADPH” value ([1]; 0.15 mM NADPH, 6 μM KnmB1, 0.1 mM compound (Fig. S131f)) was “could act as a non-substrate effector”, the “NADPH oxidation of KnmB1 in the presence of compound (replicates 1, 2, 3)” value (“NADPH oxidation of KnmB1 … (replicates 1, 2, 3)” for short) ([1]; Time 0) was 0.0000 µM and the “NADPH oxidation of KnmB1 in the presence of compound, average value” (from here on “NADPH oxidation of KnmB1 … average value”) ([1]; Time 0) was 0.0000 µM. For the same compound, the “NADPH oxidation of KnmB1 … (replicates 1, 2, 3)” value ([1]; Time 1) was 2.9582 µM and 2.2830 µM and 2.5080 µM, the “NADPH oxidation of KnmB1 … average value” ([1]; Time 1) was 2.5831 µM and the “NADPH oxidation of KnmB1 … (replicates 1, 2, 3)” value ([1]; Time 2) was 6.8489 µM and 4.6945 µM and 5.9164 µM. For the same compound, the “NADPH oxidation of KnmB1 … average value” ([1]; Time 2) was 5.8199 µM, the “NADPH oxidation of KnmB1 … (replicates 1, 2, 3)” value ([1]; Time 3) was 8.2797 µM and 6.4309 µM and 6.4630 µM and the “NADPH oxidation of KnmB1 … average value” ([1]; Time 3) was 7.0579 µM. For the same compound, the “NADPH oxidation of KnmB1 … (replicates 1, 2, 3)” value ([1]; Time 4) was 9.7106 µM and 8.7942 µM and 8.6174 µM, the “NADPH oxidation of KnmB1 … average value” ([1]; Time 4) was 9.0407 µM and the “NADPH oxidation of KnmB1 … (replicates 1, 2, 3)” value ([1]; Time 5) was 11.9293 µM and 10.4662 µM and 10.1447 µM. The “NADPH oxidation of KnmB1 … average value” ([1]; Time 5) was 10.8467 µM, the “NADPH oxidation of KnmB1 … (replicates 1, 2, 3)” value ([1]; Time 8) was 16.3826 µM and 16.8650 µM and 14.9839 µM and the “NADPH oxidation of KnmB1 … average value” ([1]; Time 8) was 16.0772 µM. For the same compound, the “NADPH oxidation of KnmB1 … (replicates 1, 2, 3)” value ([1]; Time 10) was 19.9679 µM and 20.5788 µM and 17.6688 µM, the “NADPH oxidation of KnmB1 … average value” ([1]; Time 10) was 19.4051 µM and the “NADPH oxidation of KnmB1 … (replicates 1, 2, 3)” value ([1]; Time 15) was 26.9614 µM and 30.3537 µM and 23.0064 µM. The “NADPH oxidation of KnmB1 … average value” ([1]; Time 15) was 26.7739 µM, the “NADPH oxidation of KnmB1 … (replicates 1, 2, 3)” value ([1]; Time 20) was 35.3859 µM and 38.9550 µM and 30.1286 µM and the “NADPH oxidation of KnmB1 … average value” ([1]; Time 20) was 34.8232 µM. For the same compound, the “NADPH oxidation of KnmB1 … (replicates 1, 2, 3)” value ([1]; Time 30) was 48.2476 µM and 54.0515 µM and 41.3344 µM, the “NADPH oxidation of KnmB1 … average value” ([1]; Time 30) was 47.8778 µM and the “NADPH oxidation of KnmB1 … (replicates 1, 2, 3)” value ([1]; Time 40) was 59.6785 µM and 66.9936 µM and 50.7878 µM. For the same compound, the “NADPH oxidation of KnmB1 … average value” ([1]; Time 40) was 59.1533 µM, the “NADPH oxidation of KnmB1 … (replicates 1, 2, 3)” value ([1]; Time 60) was 78.3119 µM and 86.3505 µM and 66.4309 µM and the “NADPH oxidation of KnmB1 … average value” ([1]; Time 60) was 77.0311 µM. For the same compound, the “hydrogen peroxide formation of KnmB1 (absorbance UV λ=560 nm), average value” ([2]; Fig. S131b, 1 mM NADPH, 17 μM KnmB1, 0.1 mM compound, 3 h) was 0.5214, the “hydrogen peroxide formation of KnmB1 (absorbance UV λ=560 nm), average value” ([2]; Fig. S131c, 0.3 mM NADPH, 6 μM KnmB1, 0.1 mM compound, 30 min) was 1.0442 and the “hydrogen peroxide formation of KnmB2 (absorbance UV λ=560 nm), average value” ([3]; Fig. S131a, 1 mM NADPH, 16 μM KnmB2, 0.1 mM compound, 30 °C, 3 h, average of 3) was 0.5988. The “H2O2 generation, average value” ([3]; KnmB2+24, Time 0) was 0.0000 µM, the “H2O2 generation, average value” ([3]; KnmB2+24, Time 1) was 7.6218 µM and the “H2O2 generation, average value” ([3]; KnmB2+24, Time 2) was 12.4635 µM. For the same compound, the “H2O2 generation, average value” ([3]; KnmB2+24, Time 3) was 16.9204 µM, the “H2O2 generation, average value” ([3]; KnmB2+24, Time 4) was 22.1791 µM and the “H2O2 generation, average value” ([3]; KnmB2+24, Time 5) was 26.8239 µM. For the same compound, the “H2O2 generation, average value” ([3]; KnmB2+24, Time 8) was 38.8438 µM, the “H2O2 generation, average value” ([3]; KnmB2+24, Time 10) was 44.6588 µM and the “H2O2 generation, average value” ([3]; KnmB2+24, Time 15) was 53.6376 µM. The “H2O2 generation, average value” ([3]; KnmB2+24, Time 20) was 56.0339 µM, the “H2O2 generation, average value” ([3]; KnmB2+24, Time 30) was 65.5374 µM and the “H2O2 generation, average value” ([3]; KnmB2+24, Time 40) was 57.4770 µM. The “H2O2 generation, average value” ([3]; KnmB2+24, Time 60) was 60.9452 µM, the “H2O2 generation, average value” ([3]; KnmB2-N219D+24, Time 0) was 0.0000 µM and the “H2O2 generation, average value” ([3]; KnmB2-N219D+24, Time 2) was 1.0964 µM. For the same compound, the “H2O2 generation, average value” ([3]; KnmB2-N219D+24, Time 4) was 1.8460 µM, the “H2O2 generation, average value” ([3]; KnmB2-N219D+24, Time 5) was 1.9569 µM and the “H2O2 generation, average value” ([3]; KnmB2-N219D+24, Time 8) was 2.8926 µM. For the same compound, the “H2O2 generation, average value” ([3]; KnmB2-N219D+24, Time 10) was 3.8614 µM, the “H2O2 generation, average value” ([3]; KnmB2-N219D+24, Time 15) was 5.8462 µM and the “H2O2 generation, average value” ([3]; KnmB2-N219D+24, Time 20) was 7.3014 µM. The “H2O2 generation, average value” ([3]; KnmB2-N219D+24, Time 30) was 11.0201 µM, the “H2O2 generation, average value” ([3]; KnmB2-N219D+24, Time 40) was 14.2037 µM and the “H2O2 generation, average value” ([3]; KnmB2-N219D+24, Time 60) was 17.9462 µM. The “H2O2 generation, average value” ([3]; KnmB2-Y215F+24, Time 0) was 0.0000 µM, the “H2O2 generation, average value” ([3]; KnmB2-Y215F+24, Time 1) was 2.6203 µM and the “H2O2 generation, average value” ([3]; KnmB2-Y215F+24, Time 2) was 4.3765 µM. The “H2O2 generation, average value” ([3]; KnmB2-Y215F+24, Time 3) was 4.8322 µM, the “H2O2 generation, average value” ([3]; KnmB2-Y215F+24, Time 4) was 7.3420 µM and the “H2O2 generation, average value” ([3]; KnmB2-Y215F+24, Time 5) was 8.5825 µM. For the same compound, the “H2O2 generation, average value” ([3]; KnmB2-Y215F+24, Time 8) was 12.4110 µM, the “H2O2 generation, average value” ([3]; KnmB2-Y215F+24, Time 10) was 14.9169 µM and the “H2O2 generation, average value” ([3]; KnmB2-Y215F+24, Time 15) was 20.6983 µM. For the same compound, the “H2O2 generation, average value” ([3]; KnmB2-Y215F+24, Time 20) was 27.2428 µM, the “H2O2 generation, average value” ([3]; KnmB2-Y215F+24, Time 30) was 36.5225 µM and the “H2O2 generation, average value” ([3]; KnmB2-Y215F+24, Time 40) was 40.7285 µM. For the same compound, the “H2O2 generation, average value” ([3]; KnmB2-Y215F+24, Time 60) was 52.7400 µM.
